Experiment [1] concerns AMP kinase phosphorylation at Thr172. The experiment is described as follows: Doxorubicin-induced activation of AMP kinase in heart explants, western immunoblot (Example 22). In kind it is cell-based. The settings on record: rat heart explants, 1 mM doxorubicin and 4 μM compound overnight; FIG. 9 Lane 3. The protocol:
Hearts from 4 week rats were excised and minced without trypsin in 50:50 medium M199:MCDB 10% FBA containing 5 mM Creatine, 2 mM L-carnitine and 5 mM taurine. Explants were incubated overnight at 37° C. in a 5% CO2 incubator untreated (Lane 1), with 1 mM doxorubicin (Lane 2), and with 1 mM doxorubicin and 4 μM 2-(3,4-dihydroxy-phenyl)-N-heptadec-8-enyl-acetamide (IV) (Lane 3). Explants were frozen at −70° C., liquid nitrogen powders were prepared and lysed and denatured in 2% SDS with 5% BME with boiling for 5 min. Protein extracts were examined by western immunoblotting using a rabbit monoclonal recognizing Phospho-AMP Kinase-α (Thr172) (CellSignal).
The AMP kinase was activated by an elevated AMP(high)/ATP(low) ratio due to cellular and environmental stress, such as heat shock, hypoxia and ischemia. Elevated AMP/ATP ratio and activation of AMPK by phosphorylation at Thr172 can also occur by uncoupling mitochondrial oxidative phosphorylation from respiration with oligomycin and thereby loss of mitochondrial ATP synthesis.

In experiment [2] the test system is PC12 neuroendocrine cell line. The experiment is described as follows: Hydrogen peroxide-mediated cell death, Live/Dead assay (Example 21). In kind it is cell-based. The settings on record: PC12 preincubated with 4 μM for 1 hr, then 1 mM hydrogen peroxide, 20 hrs; FIG. 8. The protocol:
Neuroendocrine cell line, PC12, was cultured in DMEM medium containing 10% FBS on plates treated with collagen. Freshly passed cells (1×10(7) cells) were preincubated with 4 μM 2-(3,4-dihydroxy-phenyl)-N-heptadec-8-enyl-acetamide (IV), 2-(2,5-dihydroxy-phenyl)-N-heptadec-8-enyl-acetamide (V) (containing about 30% impurity), or other compound for 1 hr and then treated with 1 mM hydrogen peroxide. After 20 hrs, cultures were examined by the Live/Dead assay (Molecular Probes).

Experiment [3] has as its target T1, isoMnSOD (Mus musculus, UniProt P09671, DEL77-115).
T1 construct: Mitochondrial pellets were lysed in 1% CHAPS detergent; from tissue; host or cells: mouse cerebellum mitochondria
T1 sequence (P09671 with tags, fused parts or gaps DEL77-115): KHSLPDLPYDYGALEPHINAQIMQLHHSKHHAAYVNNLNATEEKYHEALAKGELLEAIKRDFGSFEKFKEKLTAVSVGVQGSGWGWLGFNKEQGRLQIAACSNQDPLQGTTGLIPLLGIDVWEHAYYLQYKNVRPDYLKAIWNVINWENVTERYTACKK
The experiment is described as follows: isoMnSOD peroxidative activity, cerebellum mitochondrial extracts on nitrocellulose strips (Example 20). In kind it is biochemical. The settings on record: 1 μM of compound, 30 min at room temperature; cerebellum of 4 week mice; 1 mM hydrogen peroxide, luminol; FIG. 7. The protocol: Protein extracts containing isoMnSOD were prepared from cerebellum from 4 week mice by first forming a liquid nitrogen powder, resuspended with five volumes of ice-cold lysis buffer (in mM: 20 HEPES-KOH, pH 7.5, 10 KCl, 1.5 MgCl2, 1 DTT, 1 EDTA, 1 EGTA, and 0.1 PMSF) containing 70 mM mannitol and 250 mM sucrose and homogenizing with a Dounce homogenizer. Extract was centrifuged at 750 g for 10 min at 4° C. and the supernatant was then centrifuged at 10,000 g for 15 min at 4° C. to pellet the mitochondrial pellet, which was then stored frozen. Mitochondrial pellets were lysed in 1% CHAPS detergent containing 50 mM Tris-Cl, pH 8.0, 500 mM NaCl and then loaded onto a native 5% polyacrylamide gel. Protein concentration was measured by using the Bradford protein assay kit. After transfer to nitrocellulose, nitrocellulose strips were incubated with 1 μM of compound in 50 mM Tris-HCl, 50 mM NaCl, 5 mM EDTA, pH 8.0 for 30 min at room temperature, then washed extensively with incubation buffer alone. The peroxidative activity of isoMnSOD was measured using 100 of Femtomole luminol (Pierce) containing 1 mM hydrogen peroxide per nitrocellulose strip and exposed to x-ray film.

For another experiment, the system named is Rats. The experiment is described as follows: Doxorubicin-induced heart failure in rats (Example 23). The experiment is classed as in vivo, rat. Particulars: IP 10 mg/kg doxorubicin, FIG. 10. How it is done: Rats were treated with IP injections of 10 mg/kg doxorubicin. Left Ventricular Developed Pressure (LVDP): Systolic Pressure-Diastolic Pressure, which is an indicator of ventricular systolic function; dP/dtmax: Maximal rate of pressure development, which is an indicator of ventricular systolic function; dP/dtmin Minimal rate of pressure development, which is an indicator of ventricular diastolic function.

The target of experiment [4] is T2, isoMnSOD (Rattus norvegicus, UniProt P07895, DEL77-115).
T2 construct: Cerebella explants from one 4 week rat, strain WKY; from tissue; host or cells: rat (WKY) cerebellum explants
T2 sequence (P07895 with tags, fused parts or gaps DEL77-115): T1 sequence (P09671 with tags, fused parts or gaps DEL77-115) with A33T, A40V, T151S, E152Q, T155I, A156V
Description: Immunodetection of isoMnSOD in treated cerebella explants (Example 24). In kind it is cell-based. Particulars: cerebella explants of 4 week rat, one hour at 37° C., 5 μM OA-diHPAc; western immunoblot. How it is done: Immuno detection of isoMnSOD and measurement of isoMnSOD (a) and measurement of caspase 9 cleavage (b) in cerebella explants from 4 week old rat cerebellum and treated with 2-(3,4-dihydroxy-phenyl)-N-heptadec-8-enyl-acetamide (IV). Cerebella explants from one 4 week rat, strain WKY, were incubated in aerated 4 mL of M199:MCDB 10% FBS and incubated one hour at 37° C. in a roller bottle for maximum oxygenation, with or without 5 μM OA-diHPAc. Explants were harvested, quick frozen, and then lysed in boiling SDS and 5% BME and protein extracts were separated in a 4-12% polyacrylamide gel (Novex) and examined by western immunoblot. […] The peptide sequence used as the antigen to form the MnSOD E2/E4 antibody is at the active site of isoMnSOD and modification of isoMnSOD by 2-(3,4-dihydroxy-phenyl)-N-heptadec-8-enyl-acetamide (IV) appears to block epitope recognition. RT/PCR analysis of the MnSOD mRNAs confirmed that the mRNA encoding isoMnSOD is present in treated explants.

Substitutions are numbered along the chain they refer to.

In the case of `CCCCCCCC/C=C\CCCCCCCNC(=O)Cc1ccc(O)c(O)c1` [2-(3,4-dihydroxy-phenyl)-N-heptadec-8-enyl-acetamide], the “suppression of doxorubicin-induced AMP kinase activation” value in experiment [1] is “suppresses this activation”. For the same molecule, the “Protection of hydrogen peroxide-mediated cell death” value in experiment [2] was “Protection”. For the same molecule, the Inhibition result on isoMnSOD [3] is recorded as “yes”. In addition, the “cardio protection of doxorubicin-induced heart failure (LVDP, dP/dtmax, dP/dtmin)” value with Rats was “exerts cardio protection”. Further, the “antigenicity of isoMnSOD with MnSOD E2/E4 peptide antibody and MnSOD antibody” value at isoMnSOD [4] is “loss of antigenicity with the MnSOD E21E4 peptide antibody but not with the MnSOD antibody”.

(Values after patent publication US8426644B2, “Compositions and methods for inhibiting an isoform of human manganese superoxide dismutase” (MitoTek, LLC, priority 2005, dated 2013).)
